The text below walks through data of article PMC8634383, “Switching Bond: Generation of New Antimicrobial Peptides via the Incorporation of an Intramolecular Isopeptide Bond” (ACS Infectious Diseases, 2021).

Converted amounts (≈) assume the structure as drawn. Starred links: 1 amine or outer side, 2 acyl side, 3 side chain; linkers in the order of their positions; H or OH if unused. Positions of bridges follow the written chain, without caps; N, C: chain ends. Non-standard residues stand in square brackets, D forms with d. Residues, ends and D or L forms follow the SMILES beside them. Chains are numbered I, II in the order given. No end group written: not given here. εLys = N[C@@H](CCCCN[*:1])C(=O)[*:2]

Data set [1] deals with Escherichia coli K12 parental type. It is filed as cell-based. Particulars: K12, 24 h. As to the method:
(§1) A panel of four bacteria, including two Gram-negative (P. aeruginosa, E. coli) and two Gram-positive (S. aureus, B. subtilis) bacterial strains, was used to test the antibacterial properties of the peptides. The bacteria P. aeruginosa, E. coli, and S. aureus belong to the ESKAPE group of pathogens, which are potential multidrug resistant strains that are majorly involved in various nosocomial infections.
(§2) The antimicrobial activity of the peptides was determined against two Gram-negative (Pseudomonas aeruginosa PA01 and the Escherichia coli K12 parental type) and two Gram-positive (Staphylococcus aureus and Bacillus subtilis) bacteria. The minimal inhibitory concentration (MIC) assays were performed as reported by Wiegand et al.,[50] using the broth microdilution method in 96-well round-bottom microplates. Briefly, bacterial cells in mid log phase were cultured in Mueller-Hinton broth (MHB) and then diluted to 10^6 CFU/mL. Aliquots of 50 μL of bacterial solution were added to 50 μL of MHB medium containing 2-fold serially diluted peptides with concentrations ranging from 1.56 to 50 μM. Plates were incubated at 37 °C for 24 h, and MICs were defined as the lowest concentration of peptide that prevented detectable turbidity. Cultures without peptides and uninoculated MHB were employed as positive and negative controls, respectively. The bacterial growth inhibition was evaluated by measuring the absorbance at 600 nm using a microplate autoreader (SynersyMx, Biotek).

For a further data set, the system named is Bacillus subtilis. It counts as cell-based. The note with it: 24 h. As to the method: as §1, §2
Another data set relates to trypsin. The data set is described as follows: in vitro. Particulars: for peptide remaining intact after trypsin incubation: trypsin 10 μg/mL, peptide 100 μM in PBS, 1 h, RP-HPLC C18 peak area relative to t0; for remaining at 1 h, 100 μM: trypsin in phosphate buffered saline. The text has this:
In order to overcome the proteolytic instability of peptide based drugs, the resistance of peptides to proteases is an essential prerequisite[33] because the peptides can be digested by the microbial or host protease and lose activity. Here, we tested the effect of the incorporation of an amide bond isostere on the resistance to trypsin, a serine protease known to cleave peptide bonds mainly at the C-terminal side of the amino acids lysine or arginine.
Figure 5 Resistance of peptides to trypsin digestion.
Proteolysis was measured by RP-HPLC using the following parameters, as reported.[52] Trypsin with a final concentration of 10 μg/mL was added to a solution of the peptides in phosphate buffered saline (100 μM), and the reaction was monitored over time by using reversed-phase HPLC (C18 reverse phase, Bio-Rad analytical column, 250 × 4 mm, 300 Å pore size, 7 μm particle size). The column was eluted in 40 min using a linear gradient of 10–90% acetonitrile in water containing 0.1% trifluoroacetic acid (v/v) at a flow rate of 0.6 mL/min.

The next data set can be described thus: in vitro. Particulars: for percentage intact peptide: 20% (v/v) human plasma, 37 °C, RP-HPLC C18, 215 nm peak area; for remaining at 0.25 h, 200 μM / remaining at 0.5 h, 200 μM / remaining at 1 h, 200 μM / remaining at 2 h, 200 μM / remaining at 4 h, 200 μM: human, blood plasma (20% v/v), pH 7.4. The procedure: The stability of the peptides was assessed by incubating them in blood plasma (20% v/v) rich in proteases thrombin and plasmin for different time periods at 37 °C.
The stability of peptides in human blood plasma was measured using a literature procedure.[13],[53] Plasma was separated from red blood cells over centrifugation, frozen, and stored at −80 °C until use. Briefly, peptides were prepared as a 1 mM solution in phosphate buffered saline (pH 7.4). 20 μL of the peptide solution was diluted in 80 μL of blood plasma (20% v/v). The solution was incubated at 37 °C for different time points, and 100 μL of a mixture containing 80% acetonitrile/10% methanol/10% water was added to stop further degradation of the peptides. A cloudy solution was produced upon the addition of the stopping solution, and the sample was cooled to 4 °C for 1 h and then centrifuged at 10 000 rpm for 10 min to remove the plasma proteins as precipitate. The supernatant (50 μL) was injected onto a reversed-phase HPLC (C18 reverse phase, Bio-Rad analytical column, 250 × 4 mm, 300 Å pore size, 7 μm particle size). The column was eluted in 40 min using a linear gradient of 10–90% acetonitrile in water containing 0.1% trifluoroacetic acid (v/v) at a flow rate of 0.6 mL/min, and the absorbance was detected at 215 nm. The percentage of remaining peptide was determined by the decrease in chromatographic peak area.

The subject of a further data set is Staphylococcus aureus. It counts as cell-based. The note with it: 24 h. As to the method:
as §1, §2

In data set [2] the test system is Pseudomonas aeruginosa PA01. It is filed as cell-based. The note with it: 24 h. As to the method:
as §1, §2

The test system of data set [3] is human monocytic (THP-1) cells. It counts as cell-based. Particulars: 100 µM. As to the method:
Peptide-induced cytotoxicity was assessed against murine macrophage (RAW 264.7) cells and human monocytic (THP-1) cells using the benzenesulfonic acid hydrate and N-methyl dibenzopyrazine methyl sulfate (XTT) dye reduction assay. […] This may in part be due to low hydrophobicity (Table 1), leading to less bacterial membrane alteration.
Figure 3 Cytotoxicity of peptides (1.56–100 μM) on human monocytic (THP-1) cells. Cell viability was analyzed and quantified by measuring the absorption at 450 nm. The data is presented as mean percent viability. All data represent mean ± SD from three independent experiments. One-way analysis of variance was used to analyze the data.
The cytotoxicity of the peptides toward the murine macrophage cells (RAW 264.7) and human monocytic (THP-1) cells was assayed using the colorimetric 2,3-bis(2-methoxy-4-nitro-5-sulfophenyl)-2H-tetrazolium-5-carboxanilide (XTT) method. […] After incubation, the cell viabilities were assessed by the XTT reaction solution (100 μL), and benzenesulfonic acid hydrate and N-methyl dibenzopyrazine methyl sulfate (mixed in a 50:1 ratio) were added for an additional 4 h incubation at 37 °C. The absorbance at 450 nm was then measured using a microplate autoreader (SynersyMx, Biotek). The percentage of cell viability was calculated relative to the 100% survival control after the blank read’s deduction.

In general, MIC refers to the smallest concentration in the dilution series that meets the test's criterion for growth inhibition. In general, share remaining refers to what is left of the initial amount, in per cent. The low end stands for more turnover, the high end for less turnover. Take LKLLKKLLKKLLKLL-NH2 [Amp1L]: in data set [1], the MIC fell in the range of 3.12 to 6.25 µM. Besides, in the data set with Bacillus subtilis, the MIC is 6.25 to 12.5 µM. For the same compound, the “peptide remaining intact after trypsin incubation” value in the data set with trypsin is “no longer detected”. In addition, the percentage intact peptide in “in vitro” (30 min) is given as approximately 65%. In addition, in the data set “in vitro” (120 min), the percentage intact peptide is approximately 61%. In “in vitro”, this compound gave a fraction remaining at 0.25 h, 200 μM of 71%; a fraction remaining at 0.5 h, 200 μM of 65%; an amount remaining at 1 h, 200 μM of 62%; an amount remaining at 2 h, 200 μM of 61%. Further, the amount remaining at 4 h, 200 μM in “in vitro” was 39%.
Consider `CC[C@H](C)[C@H](NC(=O)CN)C(=O)NCC(=O)N[C@@H](CCCCN)C(=O)N[C@@H](Cc1ccccc1)C(=O)N[C@@H](CC(C)C)C(=O)N[C@@H](CCCCN)C(=O)NCCCC[C@H](N)C(=O)N[C@@H](C)C(=O)N[C@@H](CCCCN)C(=O)N[C@@H](CCCCN)C(=O)N[C@@H](Cc1ccccc1)C(=O)NCC(=O)NCCCC[C@H](N)C(=O)N[C@@H](C)C(=O)N[C@@H](Cc1ccccc1)C(=O)N[C@H](C(=O)NCCCC[C@H](N)C(=O)N[C@H](C(=O)N[C@@H](CC(C)C)C(=O)N[C@@H](CCCCN)C(=O)N[C@@H](CCCCN)C(N)=O)[C@@H](C)CC)C(C)C` [MSIEP] (H-GIGKFLK[εLys]AKKFG[εLys]AFV[εLys]ILKK-NH2), for which the MIC against Staphylococcus aureus was in the range of 6.25 to 12.5 µM. In data set [1], the MIC worked out at 12.5 µM (≈ 31 µg/mL). In the data set on Bacillus subtilis, this compound gave an MIC of 6.25 to 12.5 µM. This compound also registered an MIC in data set [2] of 6.25 to 12.5 µM. In the data set on trypsin, this compound gave a fraction remaining at 1 h, 100 μM of more than 66%. The “drop of cell viability” value in data set [3] was determined as 20%. In “in vitro”, this compound had a fraction remaining at 0.25 h, 200 μM of 99%; an amount remaining at 0.5 h, 200 μM of 98%; a share remaining at 1 h, 200 μM of 76%; an amount remaining at 2 h, 200 μM of 75%. Besides, in the data set “in vitro”, the amount remaining at 4 h, 200 μM amounted to 75%.
In the data set with Staphylococcus aureus, GIGKFLKKAKKFGKAFVKILKK-NH2 [MSI-78] yielded an MIC of 0.78 to 1.56 µM. Also, the MIC in data set [1] lay within 1.56 to 3.12 µM. The compound further registered an MIC in the data set with Bacillus subtilis of 1.56 µM. Also, the “peptide remaining intact after trypsin incubation” value in the data set with trypsin is “no longer detected”. Moreover, in “in vitro”, the fraction remaining at 0.25 h, 200 μM amounted to 91%; the share remaining at 0.5 h, 200 μM was 81%; the share remaining at 1 h, 200 μM was 81%; the amount remaining at 2 h, 200 μM was 63%. In “in vitro”, the amount remaining at 4 h, 200 μM amounted to 55%.
For the compound `CC(C)C[C@H](NC(=O)[C@H](CC(C)C)NC(=O)[C@@H](N)CCCCNC(=O)[C@H](CC(C)C)NC(=O)[C@H](CC(C)C)NC(=O)[C@H](CCCCN)NC(=O)[C@@H](N)CCCCNC(=O)[C@H](CC(C)C)NC(=O)[C@H](CC(C)C)NC(=O)[C@H](CCCCN)NC(=O)[C@@H](N)CCCCNC(=O)[C@H](CC(C)C)NC(=O)[C@H](CC(C)C)NC(=O)[C@H](CCCCN)NC(=O)[C@@H](N)CC(C)C)C(N)=O` [Amp1EP] (I: H-LKLL[εLys]KLL / II: H-KKLL[εLys]LL-NH2; amide I:C-II:1), the MIC in data set [1] is 6.25 µM (≈ 11.3 µg/mL). This compound also came in with an MIC in the data set with Bacillus subtilis of 12.5 µM (≈ 22.6 µg/mL). In data set [2], this compound displayed an MIC of 3.125 to 6.25 µM. The compound also had an amount remaining at 1 h, 100 μM with trypsin of 37%. The “drop of cell viability” value in data set [3] worked out at 50%. The compound also returned a percentage intact peptide in “in vitro” (30 min) of approximately 85%. Besides, in “in vitro”, the share remaining at 0.25 h, 200 μM was 85%; the amount remaining at 0.5 h, 200 μM worked out at 85%; the amount remaining at 1 h, 200 μM was found to be 66%; the fraction remaining at 2 h, 200 μM turned out to be 60%. In “in vitro”, this compound gave a fraction remaining at 4 h, 200 μM of 37%.
